The values below come from US9861568B2, “Composition for improving skin conditions, containing chlorophyll a or pheophorbide a” (GWANGJU INSTITUTE OF SCIENCE AND TECHNOLOGY, priority 2014, dated 2018).

Series [1] relates to intercellular adhesion molecule-1 (ICAM-1). As to the kind of experiment: Immunohistochemical staining for ICAM-1 in dorsal skin of UV-irradiated mice. The class given is in vivo, mouse. As to conditions: 5 mg/kg daily oral, compared with the UV-only-irradiated group. The method, then:
(§1) In order to irradiate animals with UV, the minimal erythema dose (MED) of the dorsal skin of mice was examined first. Minimal erythema dose means the minimum amount of erythema that can be derived with a clear border after 24 hours of irradiation. The mice were irradiated three times a week for 8 weeks with UV. During the first 3 weeks, the dose was increased by 1 MED (herein, 1 MED=30 mJ/cm2), and then 3 MED was maintained thereafter.
(§2) Premature female SKH-1 hairless mice were purchased from Charles River Laboratories (Wilmington, Mass.) and adapted for one week. The mice were housed in air-conditioned rooms in a 12-hour light/12-hour dark cycle to allow them to eat water and food freely. The room temperature was maintained at 23±3° C. and under humidity at 55±15%. All experiments were approved by the Animal Care and Use Committee at Gwangju Institute of Science and Technology.
(§3) After the adaptation period, mice were divided into 4 groups of 6 mice per each group. Each of the groups was as follows:
Chlorophyll a (Ca, Sigma-Aldrich, St Louis, Mo., USA) or pheophorbide a (Pa, Frontier Scientific, Logan, Utah, USA) was dissolved in a solution of 40% polyethylene glycol 400 (Sigma-Aldrich, St Louis, Mo., USA), respectively. As a control, vehicle was prepared with only 40% polyethylene glycol 400 solution and administered to mice in the negative control and positive control groups. […]

For series [2], the system named is dorsal skin of UV-irradiated SKH-1 hairless mice. As to the kind of experiment: Wrinkle evaluation of dorsal skin of UV-irradiated hairless mice (visual grade, negative replica). The class given is in vivo, mouse. As to conditions: UV 8 weeks, 5 mg/kg daily oral; for visual wrinkle grade: clinical images rated by two practitioners; for wrinkle area in replicated images: compared to the control group; for thickness of wrinkles of dorsal skin: compared with the control group. The method, then:
as §1, §2, §3
(c) Group of receiving 5 mg/kg daily chlorophyll a with UV irradiation
(d) Group of receiving 5 mg/kg pheophorbide a daily with UV irradiation
(§4) Chlorophyll a (Ca, Sigma-Aldrich, St Louis, Mo., USA) or pheophorbide a (Pa, Frontier Scientific, Logan, Utah, USA) was dissolved in a solution of 40% polyethylene glycol 400 (Sigma-Aldrich, St Louis, Mo., USA), respectively. As a control, vehicle was prepared with only 40% polyethylene glycol 400 solution and administered to mice in the negative control and positive control groups. The administration of test materials was made immediately after UV irradiation.
A digital camera (Sony Cybershot DSC-W570, 5× optical zoom, 16.1 megapixels, Sony Corporation, Tokyo, Japan) was used to obtain a clinical image of the dorsal skin after continuous exposure to low dose UV. The enlarged wrinkles were obtained using DermLite®IIHybridM (3Gen, LLC, San Juan Capistrano, Calif., USA) attached to the digital camera. The wrinkles of the dorsal skin of the mice were graded according to the method described by Bissett et al.. The grades were as follows:
Grade 0—no thick wrinkles;
Grade 1—a few shallow thick wrinkles;
Grade 2—some thick wrinkles;
Grade 3—multiple deep thick wrinkles.
A negatively imprinted replica was used to analyze the wrinkles of the skin, which is described by Ryu et al.. That is, a semi-fluidic silicone polymer was mixed with a catalyst (Imprint II Garant™ Light Body, 3M) and then applied to a dorsal skin sufficiently to penetrate into the wrinkles beyond a contour. This replica was analyzed under standard illumination with an incident angle where the replica was formed and set to produce a reflective shadow proportional to the height of the wrinkles. The captured images were analyzed from a shadow region in the images using image analysis software (ImageJ software, NIH Image, National Institutes of Health, Bethesda, Md., USA; online at: http://rsb.info.nih.gov/ij/).

Series [3] shares this test system. As to the kind of experiment: Histological examination of dorsal skin of UV-irradiated mice (H&E, Masson-trichrome). The class given is in vivo, mouse. As to conditions: 5 mg/kg daily oral; for collagen breakdown in the dermis / infiltration of inflammatory cells in the epidermis and upper dermis: compared with the control group; for infiltration of inflammatory cells in the epidermis and upper dermis: H&E stain; for thickness of the epidermis: Masson-trichrome staining. The method, then:
as §1, §2, §3, §4
Tissue samples taken from the dorsal skin of UV-irradiated mice were fixed in 4% paraformaldehyde and then included in paraffin. Thin sections with a thickness of 4 μm were stained with hematoxylin and eosin solution. To visualize collagen deposition, the sections were stained with Accustain trichrome stain (Sigma-Aldrich, St. Louis, Mo., USA). The epidermal thickness from a junction of the granular keratocytes to a junction of the dermis-epidermis was measured using an i-Solution DT image acquisition and analysis program (IMT 20 i-solution, Vancouver, Canada) and a Leica microscope (Leica, Wetzlar, Germany). To assess the thickness of the epidermis, any of the ten sites on the slide were measured. In […], inflammatory cells from epidermis to subcutaneous fat layer were calculated.

In series [4] the test system is extracellular signal-regulated kinase (Erk). As to the kind of experiment: Western blotting of phosphorylated Erk in UV-irradiated hDF cells. As to conditions: 20 μM and 50 μM, 2 hours in the absence of light. The class given is cell-based, human. The method, then:
(§5) The primary human dermal fibroblast (hDF) cell line was obtained from Chonnam National University Medical School (Gwangju, Republic of Korea). The cells were cultured at 37° C. and under 5% CO2 using Dulbecco's Modified Eagle's Medium (DMEM, Gibco Laboratories, Grand Island, N.Y., USA) supplemented with 5% fetal bovine serum (Gibco Laboratories, Grand Island, N.Y., USA) and 1% penicillin (100 units/ml)/streptomycin ([…]).
(§6) Philips TL 20W/12 RS fluorescent sun lamp with emission spectra of 280 nm and 380 nm was used as an UV source. The UV intensity at the skin surface was measured using a UV detector (GUVx-T1xGS5-LA2, Genicom Daejeon, Korea). The UV irradiation intensity was 1.0 mW/cm2 at 30 cm from the UV source. The cells were cultured up to 75-80% of culture dish, washed twice with PBS buffer, and irradiated with UV to treat test materials. Thereafter, the cells were continuously cultured in the absence of light until the next analysis. […]

Series [5] has as its system MMP-3. Kind of series: Western blotting of MMP-3 protein in UV-irradiated hDF cells. The class given is cell-based, human. The conditions noted are these: various concentrations. How it is done:
as §5, §6

The test system of series [6] is c-Jun N-terminal kinase (JNK). As to the kind of experiment: Western blotting of phosphorylated JNK and JNK in UV-irradiated hDF cells. The class given is cell-based, human. The method, then: as §5
(§7) Philips TL 20W/12 RS fluorescent sun lamp with emission spectra of 280 nm and 380 nm was used as an UV source. The UV intensity at the skin surface was measured using a UV detector (GUVx-T1xGS5-LA2, Genicom Daejeon, Korea). The UV irradiation intensity was 1.0 mW/cm2 at 30 cm from the UV source. The cells were cultured up to 75-80% of culture dish, washed twice with PBS buffer, and irradiated with UV to treat test materials. Thereafter, the cells were continuously cultured in the absence of light until the next analysis.
The total protein extracts from the samples were dissolved in lysis buffer (50 mM Tris (pH 7.4), 150 mM NaCl, 1 mM EGTA, 1% NP-40, 0.25% sodium deoxycholate, 1 mM PMSF, and phosphatase inhibitor mixture (Sigma, St. Louis, Mo., USA) and then boiled for 5 minutes. The dissolved proteins were quantitated using Bio-Rad Protein Assay Dye Reagent Concentrate (Bio-Rad Laboratories, Hercules, Calif., USA) and then separated by SDS-PAGE and transferred to a polyvinylidene difluoride (PVDF) membrane (Amersham Pharmacia Biotech, Piscataway, N.J., USA). Membranes were reacted with specific primary antibodies overnight at 4° C., and protein bands were then visualized using secondary antibodies coupled with horseradish peroxidase (HRP) and a chemiluminescence detection kit (Amersham Pharmacia Biotech). […]

The subject of series [7] is human dermal fibroblast (hDF) cells. Kind of series: Cell viability assay (water soluble tetrazolium) in UV-irradiated hDF cells. The conditions noted are these: UV 20 mJ/cm2, 0, 10, 20, 50 μM, 72 hours in the absence of light. The class given is cell-based. The method, then:
as §5, §7
A water soluble tetrazolium test method was used for cell viability analysis. Quantification of living cells was performed using a […] Ez-cytox Cell Viability Assay Kit (Daeil Lab Co, Seoul, Korea). The formazan dye was analyzed spectrophotometrically by measuring the absorbance at 450 nm using a Chameleon multi-label plate reader (Hidex Personal Life Science, Hidex Oy, Finland). […]

Series [8] has as its system MMP-1. As to the kind of experiment: Real-time RT-PCR of MMP-1 mRNA in UV-irradiated hDF cells. The class given is cell-based, human. The conditions noted are these: cultured 24 hours, relative to GAPDH. How it is done: as §5, §7
(§8) Total RNA was isolated using a Trizol reagent (Invitrogen, Carlsbad, Calif., USA) according to the manufacturer's instructions. […] For the detection of fluorescence during the PCR amplification, SYBR Premix Ex Taq (Takara Bio, Otsu, Japan) was used. […]
(§9) In addition, UV was irradiated, the test materials were treated, cultured for 24 hours, and then the mRNA level of MMPs was analyzed using a real time RT PCR method. […]

The test system of series [9] is MMP-3. As to the kind of experiment: Real-time RT-PCR of MMP-3 mRNA in UV-irradiated hDF cells. As to conditions: cultured 24 hours, relative to GAPDH. The class given is cell-based, human. How it is done:
as §5, §7, §8, §9

Series [10] relates to MMP-1. Kind of series: Western blotting of MMP-1 protein in UV-irradiated hDF cells. The class given is cell-based, human. As to conditions: various concentrations. The method, then: as §5, §6

Regarding `C=Cc1c(C)c2cc3nc(c4c5[n-]c(cc6nc(cc1[n-]2)C(C)=C6CC)c(C)c5C(=O)[C@@H]4C(=O)OC)[C@@H](CCC(=O)OC/C=C(\C)CCC[C@H](C)CCC[C@H](C)CCCC(C)C)[C@@H]3C.[Mg+2]` [chlorophyll a], the “level of ICAM-1 expression in the epidermis and upper dermis” value in series [1] is “decreased”. In series [2], the visual wrinkle grade result is “wrinkles grades were lower”, the “wrinkle area in replicated images” value was “a decrease in the wrinkle area” and the “thickness of wrinkles of dorsal skin” value was “remarkably reduced”. In series [3], the “collagen breakdown in the dermis” value is on record as “less collagen breakdown occurred”; the “infiltration of inflammatory cells in the epidermis and upper dermis” value is reported as “reduced”; the “thickness of the epidermis” value is given as “A decrease in thickness”.
In the case of pheophorbide a, in series [4], the “expression level of phosphorylated Erk” value is listed as “decreased”. The “MMP-3 protein expression level” value with MMP-3 [5] is “decreased in proportion to the amount treated”. Further, the “level of ICAM-1 expression in the epidermis and upper dermis” value in series [1] is given as “decreased”. Moreover, the MAPK phosphorylation inhibition result in series [6] (10 μM, 2 hours) is “not as much as 20 μM and 50 μM”. In series [6] (20 μM and 50 μM, 2 hours in the absence of light), the “expression level of phosphorylated JNK” value is “decreased”. In [6] (2 hours in the absence of light), the “basal JNK protein level” value was “decreased in proportion to the amount of pheophorbide a”. For the same compound, in [2], the visual wrinkle grade entry is given as “wrinkles grades were lower”, the “wrinkle area in replicated images” value was “a decrease in the wrinkle area” and the “thickness of wrinkles of dorsal skin” value is on record as “remarkably reduced”. Further, in series [7], the cell viability entry is reported as “not affected”. In addition, the “MMP-1 mRNA level” value in the series with MMP-1 [8] is “significant decrease”. Further, in the series with MMP-3 [9], the “MMP-3 mRNA level” value was “significant decrease”. Besides, in the series on MMP-1 [10], the “MMP-1 protein expression level” value is listed as “decreased in proportion to the amount treated”. In addition, in series [3], the “collagen breakdown in the dermis” value is “less collagen breakdown occurred”; the “infiltration of inflammatory cells in the epidermis and upper dermis” value is “reduced”; the “thickness of the epidermis” value is listed as “A decrease in thickness”.
